Patent US20180272034A1, “USE OF CSA COMPOUNDS TO PREVENT MICROBIAL BUILD-UP OR FOULING OF MEDICAL IMPLANTS” (BRIGHAM YOUNG UNIVERSITY, priority 2017, published 2018)

How the values were obtained:
[1] = tested on: Klebsiella pneumonia; experiment: Log10 reduction, coated PVC endotracheal tube segments and media; type: cell-based; details: CSA-131 polymer coating about 39.4 μg/cm^2 vs uncoated, 24 hours
Experimental: (§1) Segments of polyvinyl chloride (PVC) endotracheal tubes measuring 3 cm in length were placed in wells of a 6 well plate. 7 ml of inoculum were placed in each well. Testing was repeated in triplicate for each test article. The samples were placed on a rotary shaker (110 revolutions per minute) and incubated at 37±2° C. for 24 hours. At the end of 24 hours the bacteria in the inoculum were characterized via serial dilution, plating, and counting. The endotracheal tube segment was also removed and neutralized. After neutralization, the adherent biofilm biomass was removed and characterized via serial dilution, plating, and counting.
(§2) As the number of viable organisms recovered from the treated catheters is expected to be low, a membrane filtration method provides an appropriate analysis for counting recovered organisms. The remaining recovery solution was filtered through a 0.45 μm filter membrane. Filters were placed on TSA/SDA/NA/TSBA plates and incubated at 37±2° C. and counted after sufficient incubation.
(§3) The log reduction is calculated by determining the Log10 difference between uncoated devices and associated media and coated devices (using a polymer coating including CSA-131 at about 39.4 μg/cm^2) and associated media. The log reduction is calculated as follows:
(§4) Log reduction(Media)=Control Log10(CFU/ml)−Test Log10(CFU/ml)
(§5) Log10(CFU/ml)=Log10(CFU/ml+1)
(§6) Log reduction(Device)=Control Log10(CFU/device)−Test Log10(CFU/device)
(§7) Log10(CFU/device)=Log10(CFU/device+1)

[2] = tested on: Pseudomonas aeruginosa; experiment: as above; type: cell-based; details: CSA-131 polymer coating about 39.4 μg/cm^2 vs uncoated, 24 hours
Experimental: as §1, §2, §3, §4, §5, §6, §7

[3] = tested on: Staphylococcus aureus MRSA; experiment: as above; type: cell-based; details: CSA-131 polymer coating about 39.4 μg/cm^2 vs uncoated, 24 hours
Experimental: as §1, §2, §3, §4, §5, §6, §7

[4] = tested on: Non-fermenters; experiment: Broth microdilution MIC, HABP/VABP clinical isolates; type: cell-based, A. baumannii species complex, P. aeruginosa, S. maltophilia; details: Non-fermenters (22)
Experimental: CSA-131 was tested in vitro against a set of clinical isolates representing bacterial species commonly associated with hospital-acquired bacterial pneumonia (HABP) or ventilator-associated bacterial pneumonia (VABP). Antimicrobial susceptibility testing for 74 clinical isolates was performed. Broth microdilution using frozen-form MIC panels consisted of three media types: cation-adjusted Mueller-Hinton broth (CA-HMB), CA-HMB supplemented with 2.5-5% lysed horse blood for S. pneumoniae and Haemophilus test media (HTM) for Haemophilus spp.

Question: Which results are given for CCCCCCCCCCCCNCCC[C@@H](C)[C@H]1CC[C@H]2[C@@H]3[C@H](OCCCN)C[C@@H]4C[C@H](OCCCN)CC[C@]4(C)[C@H]3C[C@H](OCCCN)[C@]12C.Cl.Cl.Cl.Cl [CSA-131]?
Answer: Log10 Reduction Device ([1]; 06-0140-M4505): 5.21; Log10 Reduction Media ([1]; 06-0140-M4505): 9.49; Log10 Reduction Total ([1]; 06-0140-M4505): 7.85; Log10 Reduction Device ([1]; 4352 (clinical)): 4.91; Log10 Reduction Media ([1]; 4352 (clinical)): 6.56; Log10 Reduction Total ([1]; 4352 (clinical)): 7.70; Log10 Reduction Device ([1]; ATCC 29011): 3.80; Log10 Reduction Media ([1]; ATCC 29011): 6.76; Log10 Reduction Total ([1]; ATCC 29011): 6.82; Log10 Reduction Device ([2]; ATCC 10752 (clinical)): 7.32; Log10 Reduction Media ([2]; ATCC 10752 (clinical)): 9.86; Log10 Reduction Total ([2]; ATCC 10752 (clinical)): 9.58; Log10 Reduction Device ([2]; ATCC 27853): 7.58; Log10 Reduction Media ([2]; ATCC 27853): 9.15; Log10 Reduction Total ([2]; ATCC 27853): 8.62; Log10 Reduction Device ([2]; PA14 (clinical)): 5.81; Log10 Reduction Media ([2]; PA14 (clinical)): 7.24; Log10 Reduction Total ([2]; PA14 (clinical)): 7.00; Log10 Reduction Device ([3]; 399 (clinical)): 6.24; Log10 Reduction Media ([3]; 399 (clinical)): 8.89; Log10 Reduction Total ([3]; 399 (clinical)): 8.23; Log10 Reduction Device ([3]; 456 (clinical)): 6.77; Log10 Reduction Media ([3]; 456 (clinical)): 9.63; Log10 Reduction Total ([3]; 456 (clinical)): 9.63; Log10 Reduction Device ([3]; U of C #18 (clinical)): 5.92; Log10 Reduction Media ([3]; U of C #18 (clinical)): 9.36; Log10 Reduction Total ([3]; U of C #18 (clinical)): 8.44; MIC50 [4]: 4 µg/mL; MIC90 [4]: 4 µg/mL; No. of isolates at MIC 2 μg/ml [4]: 9; No. of isolates at MIC 4 μg/ml [4]: 12; No. of isolates at MIC 8 μg/ml [4]: 1; cumulative % inhibited at 2 μg/ml [4]: 40.9%; cumulative % inhibited at 4 μg/ml [4]: 95.5%; cumulative % inhibited at 8 μg/ml [4]: 100%
